# Like-named read-outs stand apart in the source and are kept apart here.
# Experiments:
# [1] = system: rat and guinea pig isolated midcolon sections; details: cited from earlier work
# [2] = system: isolated human ileum; details: all frequencies tested; cited from earlier work
# [3] = in vivo; cited from earlier work
# [4] = system: gastroduodenal motility; details: cited from earlier work
# [5] = system: opossum duodenum; details: cited from earlier work
# [6] = in vivo; cited from earlier work; remark: listed apart in the source
# [7] = for blood pressure and pulse: first patient
# Description: During the period of observation, vital signs (blood pressure and pulse) and symptoms were continuously recorded. The protocol was such that if the blood pressure dropped by more than 20 mm Hg systolic or diastolic or the pulse increased by more than 30 beats per minute for 2 minutes, intravenous saline was to be administered and the study terminated.
# [8] = 1 mg intravenously followed by 2 mg IV over 2 hours
molecule,measurement,setting,value
CN1[C@@H]2CC[C@H]1C[C@@H](OC(=O)C(CO)c1ccccc1)C2 (stereo partly drawn) [atropine],ascending contractions,[1]; all grades of stretch,strongly inhibits
same,descending relaxation,[1],no effect
same,response to electrical field stimulation,[2],primary relaxation
same,"beneficial effects during endoscopies (patient tolerance, facilitation of endoscopy)",[3],failed to demonstrate any beneficial effects
glucagon,cycle length and time between contractile activity in the duodenum,[4]; [8],significantly increased
same,mean pressure period,[4]; [8],decreased
same,contractions in the antrum,[4]; doses as high as 2 mg,does not reduce contractions
same,colonoscopic evaluation,[4]; in vivo,does not facilitate
same,gastroduodenal motility,[4]; in vivo,variable reduction
same,minimally effective dose for reduction in gastroduodenal motility,[4]; in vivo,0.5 mg
same,effect on opossum duodenum,[5],stimulated relaxation
same,dose at which nausea and vomiting can appear,[6],1 mg
"CC[C@H](C)[C@H](NC(=O)[C@H](CO)NC(=O)[C@H](CC(N)=O)NC(=O)[C@H](CC(C)C)NC(=O)[C@H](Cc1ccc(O)cc1)NC(=O)[C@H](CCCCN)NC(=O)[C@H](CCCCN)NC(=O)[C@@H](NC(=O)[C@H](C)NC(=O)[C@H](CCSC)NC(=O)[C@H](CCC(N)=O)NC(=O)[C@H](CCCCN)NC(=O)[C@H](CCCN=C(N)N)NC(=O)[C@H](CC(C)C)NC(=O)[C@H](CCCN=C(N)N)NC(=O)[C@@H](NC(=O)[C@H](Cc1ccc(O)cc1)NC(=O)[C@H](CC(N)=O)NC(=O)[C@H](CC(=O)O)NC(=O)[C@@H](NC(=O)[C@H](Cc1ccccc1)NC(=O)[C@@H](NC(=O)[C@H](C)NC(=O)[C@H](CC(=O)O)NC(=O)[C@H](CO)NC(=O)[C@@H](N)Cc1c[nH]cn1)C(C)C)[C@@H](C)O)[C@@H](C)O)C(C)C)C(=O)N[C@@H](CC(C)C)C(=O)N[C@@H](CC(N)=O)C(N)=O [VIP, vasoactive intestinal peptide]",blood pressure and pulse,[7]; 5 ng VIP per kg,slight decrease in systolic pressure and increase in pulse
same,blood pressure and pulse,[7]; higher dose level (20 ng/kg),these effects on blood pressure and pulse were not seen
same,blood pressure or pulse,"[7]; second patient, any of the dosages tested",no significant change
same,effect on blood pressure,[7]; summary statement,without a significant effect
same,blood pressure or pulse,"[7]; third patient, any dose",no significant change
same,adverse reactions such as nausea or vomiting,[7]; three patients,None of the three patients studied experienced any adverse reactions
